Source: patent US20110293524A1, “METHODS AND COMPOSITIONS FOR THE REGULATION OF LECTIN COMPLEMENT PATHWAY (LCP)-ASSOCIATED COMPLEMENT ACTIVATION IN HYPERGLYCEMIC MYOCARDIAL DAMAGE” (The Brigham and Women"s Hosptial Inc., priority 2008, published 2011)

Legend:
Format in all cases: in vivo
diabetic WT mice [1] = assay: Left ventricular long and short axis area measurements by echocardiography before MI/R; details: STZ-diabetic WT mice, insulin 2-6 IU i.p. daily for 2 weeks
Description: (§1) All animals used in MI/R experiments were male mice aged 8-12 wk old. C57BL/6 [wildtype (WT)] mice were obtained from Charles River Laboratories (Wilmington, Mass.). MBL null animals 21, back-crossed 8-10 generations onto the C57BL/6 background, were used as previously described^2,22. All procedures were reviewed and conducted in accordance with the Institute's Animal Care and Use Committee (IACUC). Experiments were performed according to the standards and principles set forth in the National Institutes of Health (Guide for the Care and Use of Laboratory Animals-DHHS publication no. (NIH) 85-23, revised 1985). […] Three days after STZ injection and immediately before MI/R studies, the urine glucose was assessed with Glucostix (Diastix, Bayer, Elkhart, Ind.). […]
(§2) Echocardiography was performed after mice had underwent experimental MI/R as described above. It has been shown that in the mouse model of MI/R, myocardial damage via infarct analysis is directly correlated with loss of function as measured by echocardiography^2. […] Ejection fraction (EF) was calculated both via left ventricular M-mode measurements and via long axis length and short axis area measurements of the left ventricle (LV)^24,25. […] In some animals, long axis and short axis area measurements of the LV were assessed prior to MI/R to assess myocardial dimensions under nonischemic conditions.

diabetic WT mice [2] = assay: Serum troponin I concentration after MI/R (ELISA); details: insulin-treated diabetic animals vs non-treated diabetic WT mice; 15 min ischemia, 4 h reperfusion
Description: (§3) All animals used in MI/R experiments were male mice aged 8-12 wk old. C57BL/6 [wildtype (WT)] mice were obtained from Charles River Laboratories (Wilmington, Mass.). MBL null animals 21, back-crossed 8-10 generations onto the C57BL/6 background, were used as previously described^2,22. All procedures were reviewed and conducted in accordance with the Institute's Animal Care and Use Committee (IACUC). Experiments were performed according to the standards and principles set forth in the National Institutes of Health (Guide for the Care and Use of Laboratory Animals-DHHS publication no. (NIH) 85-23, revised 1985). Mice were made diabetic by a single injection of freshly prepared streptozotocin (STZ) solution (200 mg/kg body weight in citrate saline, pH 4.2, i.p., ALEXIS, Lausen, Switzerland)^23. The mice were housed in cages of four mice each and had unlimited access to water and standard mouse chow. Three days after STZ injection and immediately before MI/R studies, the urine glucose was assessed with Glucostix (Diastix, Bayer, Elkhart, Ind.). Mice with urine glucose>500 mg/dl in both tests were presumed to be diabetic. […]
(§4) Hearts were excised and fixed in 10% formalin PBS at 4° C. overnight. […] Serum troponin I concentrations were measured as an index of myocardial cell death using a commercially available ELISA kit (Life Diagnostics, West Chester, Pa.)^26.

diabetic WT mice [3] = assay: Neutrophil infiltration into the myocardium following MI/R (Ly-6G staining, infrared imaging); details: diabetic WT mice treated with insulin; 15 min ischemia, 4 h reperfusion
Description: as §3, with “diabetic. A group of STZ-injected mice was intensively treated with Lantus insulin (Sanofi-Aventis, Bridgewater, N.J.) to rule out any potentially cardiotoxic effects of STZ. Dependent on the individual daily urine glucose, 2-6 IU of insulin was injected (i.p.) daily.” for “diabetic.”

diabetic WT mice [4] = assay: Left ventricular ejection fraction by echocardiography after MI/R (15 min ischemia, 4 h reperfusion); details: STZ-diabetic WT mice, insulin 2-6 IU i.p. daily for 2 weeks, vs non-treated diabetic WT mice
Description: as §1, §2

diabetic WT mice [5] = assay: Heart/body weight ratio after 2 weeks of diabetes; details: STZ-diabetic WT mice, insulin-treated, no MI/R
Description: as §3, §4

diabetic WT mice [6] = assay: Cardiac progenitor cell (CPC) numbers in heart sections (SCF R/c-kit staining); details: diabetic WT mice treated with insulin, two weeks of diabetes
Description: as §3, with “diabetic. A group of STZ-injected mice was intensively treated with Lantus insulin (Sanofi-Aventis, Bridgewater, N.J.) to rule out any potentially cardiotoxic effects of STZ. Dependent on the individual daily urine glucose, 2-6 IU of insulin was injected (i.p.) daily.” for “diabetic.”

With insulin the “diabetic cardiomyopathy as measured by long and short axis measurements via echocardiography” value (diabetic WT mice [1]) was “protected diabetic WT mice from diabetic cardiomyopathy”, the “serum troponin I concentrations after MI/R” value (diabetic WT mice [2]) was “significantly reduced” and the “inflammatory response (neutrophil infiltration into cardiac tissue) after MI/R” value (diabetic WT mice [3]) was “attenuated the inflammatory response”. For the same substance, the “cardiac function (ejection fraction) following MI/R” value (diabetic WT mice [4]) was “prevented loss of cardiac function following MI/R”, the “diabetic cardiomyopathy / hypertrophic remodeling by heart/body weight ratios” value (diabetic WT mice [5]) was “protected diabetic WT mice from diabetic cardiomyopathy” and the “loss of cardiac progenitor cells (CPC) in diabetes” value (diabetic WT mice [6]) was “reversed this effect”.
